The record followed here is PMC11763059, “GENI as an AMPK Activator Binds α and γ Subunits and Improves the Memory Dysfunction of Alzheimer’s Disease Mouse Models via Autophagy and Neuroprotection” (Antioxidants, 2025).

One test deals with PI3K. Put plainly: Drug affinity responsive target stability (DARTS), PI3K. In kind it is binding. The following applies: 0.1–100 μM GENI, protein: pronase 50:1. On the procedure:
(§1) Cells were lysed by RIPA lysis buffer, and the protein concentration was measured. The lysate was divided into six groups. Before incubation with protease (protein: pronase = 50:1 w/w for PI3K and AMPK detection, 5:1 for MAPK detection, 100:1 for p53 detection) for 25 min in 25 °C, 0.1–100 μM GENI was added to lysates and incubated for 2 h at room temperature. The samples were mixed with loading buffer and then separated on 8% SDS-PAGE for immunoblotting analysis.

Test [1] addresses T1, AMPK-s2 (α subunit- D157A) (Rattus norvegicus, UniProt P54645+P80385, D168A).
T1 construct: His (N); made in house
As to the kind of experiment: SPR analysis, AMPK mutant s2. In kind it is binding. In general terms: SPR reads the build-up and loss of mass on a sensor chip optically.

The subject of test [2] is T2, AMPK α subunit ASP166 mutated into ALA166.
T2 construct: His (N); made in house
As to the kind of experiment: SPR analysis, AMPK α subunit D166 replaced with A166. The class given is binding. As for the experimental part: (§2) Mammalian AMPK subunits (His-α1, β1, and γ1) were cloned into a pET-3d vector, and protein expression and purification were similar to the literature.
(§3) SPR analysis was performed with a Biacore T200 instrument (GE Healthcare). Firstly, the purred His-tagged AMPK containing α1β1γ1 protein was captured onto an activated carboxymethylated 5 (CM5) chip using amine coupling to levels ranging from 4000 RU to 6000 RU. Secondly, GENI was dissolved in PBS-P buffer solution (0.05% (v/v) Tween 20 and PBS), and the concentration of GENI was 64 μM. Thirdly, the solution of GENI was diluted to 32 μM, 16 μM, 8 μM, 4 μM, 2 μM, 1 μM and 0.5 μM with PBS-P buffer solution. The sample was filtered by pumping through a […] membrane. A gradient concentration of GENI was injected at a flow rate of 30 μL/min in a running buffer (0.05% (v/v) Tween 20 and PBS). The data were analyzed with Biacore evaluation software (T200 version 2.0) and fitted to the 1:1 Langmuir binding model, and the kinetic parameters were derived.
(§4) The non-covalent interaction between drugs and proteins is an important way to exert drug efficacy, and its mode of action and binding affinity usually determine the utilization and biological activity of drugs. AMPK is a heterotrimer complex consisting of an α subunit containing the kinase domain and two regulatory subunits (β- and γ-). […]

Another test relates to T3, p53.
T3 construct: endogenous in cells
As to the kind of experiment: Drug affinity responsive target stability (DARTS), p53. In kind it is binding. The conditions noted are these: 0.1–100 μM GENI, protein: pronase 100:1. On the procedure: as §1

The test system of a further test is BV-2 cells. Put plainly: IL-6 ELISA and NO assay in BV-2 cell culture supernatant. The class given is cell-based, murine. The following applies: LPS 1 μg/mL. On the procedure:
ELISA analysis for NO and interleukin-6 (IL-6) was performed according to the manufacturer described in the material and methods section in Supplementary Information. […]
for 15 seconds, 68 ℃ for 20 seconds. All results were normalized to GAPDH RNA levels, and relative mRNA transcript levels were calculated using the ΔΔCt formula.
1.2. Enzyme-linked immunosorbent assay
BV-2 cells were treated with LPS (1 μg/mL) in the absence or presence of GENI (1, 3 and 10 μM). The cell supernatant was collected at different time points for proinflammatory mediator assay (8 h for IL-6 and 24 h for NO). NO production was quantified using an NO assay kit (S0021S, Beyotime, China), and IL-6 was detected using commercial ELISA kits (EM004, ExCell, China) according to the manufacturer’s instructions.
For NO content evaluation, firstly, the NO assay kit was removed, and Griess Reagents I and II were warmed to room temperature. The standard substance was diluted with cell culture solution to 0, 1, 2, 5, 10, 20, 40, 60 and 100 μM. […] The absorbance was determined with a microplate reader (BioTek, California, USA) at 540 nm. […]
15.625 and 0 pg/mL for use, and blank holes were set. […] About 100 μL of termination solution was added to each hole, and we measured the OD450 value immediately after mixing with a microplate reader (BioTek, California, USA).
Background: ELISA stands for enzyme-linked immunosorbent assay.

The target in test [3] is T4, AMPK-s4 (γ subunit- K148A) (Rattus norvegicus, UniProt P54645+P80385, K148A).
T4 construct: His (N); made in house
As to the kind of experiment: SPR analysis, AMPK mutant s4. The class given is binding. On the procedure:
as §2, §3, §4

[4] abbreviates: SPR, association rate, read-out: Ka.

T4 sequence (P54645 13-559 limits assumed): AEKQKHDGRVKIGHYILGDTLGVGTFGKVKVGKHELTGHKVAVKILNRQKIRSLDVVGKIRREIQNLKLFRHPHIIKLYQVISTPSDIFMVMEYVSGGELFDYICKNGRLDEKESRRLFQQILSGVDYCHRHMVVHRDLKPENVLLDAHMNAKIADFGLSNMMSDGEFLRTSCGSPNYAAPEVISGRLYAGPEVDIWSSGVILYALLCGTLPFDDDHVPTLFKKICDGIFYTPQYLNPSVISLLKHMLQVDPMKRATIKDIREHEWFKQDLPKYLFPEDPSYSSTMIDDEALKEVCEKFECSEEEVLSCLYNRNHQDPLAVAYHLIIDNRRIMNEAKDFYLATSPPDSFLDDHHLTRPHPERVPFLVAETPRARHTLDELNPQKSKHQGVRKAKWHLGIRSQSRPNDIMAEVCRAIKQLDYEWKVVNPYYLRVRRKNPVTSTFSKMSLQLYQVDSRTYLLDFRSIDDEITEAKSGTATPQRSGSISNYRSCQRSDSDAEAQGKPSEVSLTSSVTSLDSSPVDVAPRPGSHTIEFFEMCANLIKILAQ
T4 sequence (P80386 whole entry partner): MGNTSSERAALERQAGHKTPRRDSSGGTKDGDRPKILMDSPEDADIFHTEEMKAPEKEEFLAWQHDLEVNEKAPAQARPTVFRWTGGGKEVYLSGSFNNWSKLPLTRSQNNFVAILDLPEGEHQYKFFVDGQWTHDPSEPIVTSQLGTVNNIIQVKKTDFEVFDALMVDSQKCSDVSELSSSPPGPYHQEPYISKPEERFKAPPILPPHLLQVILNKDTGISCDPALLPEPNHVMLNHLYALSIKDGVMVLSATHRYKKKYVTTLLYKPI
T4 sequence (P80385 whole entry K148A): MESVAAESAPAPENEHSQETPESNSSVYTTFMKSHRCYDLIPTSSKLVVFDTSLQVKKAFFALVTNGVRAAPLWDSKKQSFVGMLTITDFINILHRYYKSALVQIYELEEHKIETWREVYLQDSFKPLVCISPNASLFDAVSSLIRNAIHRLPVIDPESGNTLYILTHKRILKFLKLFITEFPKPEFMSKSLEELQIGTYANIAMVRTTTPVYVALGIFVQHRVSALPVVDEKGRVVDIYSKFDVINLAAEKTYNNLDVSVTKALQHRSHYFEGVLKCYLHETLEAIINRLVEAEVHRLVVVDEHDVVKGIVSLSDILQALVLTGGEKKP
T1 sequence (P54645 13-559 D168A limits assumed): as the sequence (P54645 13-559 limits assumed) above, with D156A counted along it
T1 sequence (P80386 whole entry partner): as the sequence (P80386 whole entry partner) above
T1 sequence (P80385 whole entry): as the sequence (P80385 whole entry K148A) above, with A148K counted along it

On to `CC(C)CCOC(=O)C1=CO[C@@H](O[C@@H]2O[C@H](CO)[C@@H](O)[C@H](O)[C@H]2O)C2C(CO)=CCC12` (stereo partly drawn) [GENI, Geniposidic 4-isoamyl ester], for which the “stability of PI3K against pronase (DARTS)” value in the test with PI3K is recorded as “no obvious effect”. In addition, the “dose-dependent response in SPR” value in test [1] (D157 replaced with A157) and in test [2] was “No significant dose-dependent response” throughout. Also, the results for the kon in test [1] (setting [4]) and in test [3] (setting [4]) were 9120 M⁻¹ s⁻¹ and 4130 M⁻¹ s⁻¹, respectively. For the same molecule, the “stability of p53 against pronase (DARTS)” value in the test on p53 was “no obvious effect”. In the test with BV-2 cells (8 h), the “secretion of LPS-stimulated pro-inflammatory IL-6” value is given as “significantly reduced”. Moreover, the “production of NO” value in the test on BV-2 cells (24 h) is listed as “significantly reduced”. Further, the “dose-dependent relationship in SPR” value in test [3] (point mutation of K148) is reported as “dose-dependent relationship was lost”.
